Among the data in ChEMBL document CHEMBL1146775 (2004) are Relaxation and Contraction values, retold here.

Calls of active or inactive are those of the source. How the calls were made is not given here. Where only a bound is given, the exact number is not on record here.

A short description of assay [1]: Maximal rate of vascular endothelium-dependent relaxation at the concentration of 10E-5 M/L. To be noted: Oryctolagus cuniculus.
The species entered for assay [2] is Rattus norvegicus. The experiment in a line: Rate of relaxation of Atropine treated rat aorta. The assay is classed as functional.
For assay [3], the species on record is Rattus norvegicus. As to the kind of experiment: Rate of relaxation of Indomethacin treated rat aorta. Format: functional.
The species entered for assay [4] is Rattus norvegicus. The experiment in a line: Rate of relaxation of endothelium denuded rat aorta. The assay is classed as functional.
For assay [5], the target named is Muscarinic acetylcholine receptor M3 (Cavia porcellus) (UniProt Q8VH26). The settings on record: Ileum.
Muscarinic acetylcholine receptor M3 (Cavia porcellus), sequence (Q8VH26 1-587): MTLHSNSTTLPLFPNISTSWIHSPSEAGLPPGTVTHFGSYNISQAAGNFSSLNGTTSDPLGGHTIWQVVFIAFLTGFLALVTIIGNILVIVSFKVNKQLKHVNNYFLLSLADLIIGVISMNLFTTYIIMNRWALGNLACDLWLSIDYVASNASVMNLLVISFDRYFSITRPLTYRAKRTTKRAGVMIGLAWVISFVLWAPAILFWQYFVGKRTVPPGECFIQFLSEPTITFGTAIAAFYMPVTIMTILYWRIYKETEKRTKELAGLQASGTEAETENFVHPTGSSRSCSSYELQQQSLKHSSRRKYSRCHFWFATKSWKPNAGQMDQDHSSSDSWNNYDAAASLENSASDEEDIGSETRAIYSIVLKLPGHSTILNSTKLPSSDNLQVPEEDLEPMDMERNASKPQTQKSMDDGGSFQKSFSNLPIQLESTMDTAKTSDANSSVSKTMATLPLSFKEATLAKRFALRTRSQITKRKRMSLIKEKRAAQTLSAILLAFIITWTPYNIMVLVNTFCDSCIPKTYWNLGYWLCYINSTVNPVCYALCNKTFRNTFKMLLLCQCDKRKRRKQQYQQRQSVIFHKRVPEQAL
The species entered for assay [6] is Rattus norvegicus. The experiment in a line: Rate of relaxation of L-NAME treated rat aorta. Format: functional.
For assay [7], the species on record is Rattus norvegicus. As to the kind of experiment: Rate of relaxation of endothelium intact rat aorta. Format: functional.
For assay [8], the species on record is Oryctolagus cuniculus. The experiment in a line: Vascular relaxation of rabbit carotid model (high lipid diet) at 0.1 M/L concentration. Format: functional.
The subject of assay [9] is Oryctolagus cuniculus. The experiment in a line: Vascular relaxation of rabbit carotid model at 0.1 M/L concentration with 5 mg/kg PPVP. The assay is classed as functional.

Consider `CCOP(=O)(OCC)C(c1cc(OC)c(O)c(OC)c1)N1CCN(c2ccccn2)CC1.Cl` (stereo not drawn), for which the Relaxation in assay [1] is more than 50%; in the assay listed under Rattus norvegicus [2], 82.6%; in the assay filed under Rattus norvegicus [3], 14.2%; in the assay filed under Rattus norvegicus [4] it was 5.7%; in the assay filed under Rattus norvegicus [6] it was 26.2%; in the assay filed under Rattus norvegicus [7], 84%. Moreover, the Contraction result in [5] was “inactive”.

Take `CCOP(=O)(OCC)C(c1ccc(O)c(OC)c1)N1CCN(c2ccccn2)CC1.Cl` (stereo not drawn): the Relaxation is more than 50% in [1]; 85.7% in the assay listed under Rattus norvegicus [2]; 23.8% in the assay listed under Rattus norvegicus [3]; 13.9% in the assay filed under Rattus norvegicus [4]; 28.8% in the assay listed under Rattus norvegicus [6]; 81.4% in the assay listed under Rattus norvegicus [7]. For the same compound, the Contraction result in assay [5] was “inactive”.

In turn, `COc1cc(C(C#N)N2CCN(C)CC2)c([N+](=O)[O-])cc1OC` (stereo not drawn) came in with a Relaxation in assay [1] of more than 50%. In addition, in assay [5], the Contraction entry is “inactive”.

With `CC(=O)OCC[N+](C)(C)C` [ACETYLCHOLINE], the Relaxation in the assay listed under Oryctolagus cuniculus [8] is 32.2%; in the assay with Oryctolagus cuniculus [9], 65.9%.
